Source: ChEMBL document CHEMBL4007482, “Evaluation of anti-diabetic effect and gall bladder function with 2-thio-5-thiomethyl substituted imidazoles as TGR5 receptor agonists” (Bioorg Med Chem Lett, 2017)

Experiments:
Assay type in all cases: ADME, organism-based
[1] = MRT in C57BL/6J mouse at 20 mg/kg, po via gavage by LC-MS/MS analysis; conditions: in vivo
[2] = AUClast in C57BL/6J mouse at 20 mg/kg, po via gavage by LC-MS/MS analysis; design: dose 20 mg/kg, time 0 - last, route oral; conditions: in vivo
[3] = Clearance in C57BL/6J mouse at 5 mg/kg, iv by LC-MS/MS analysis; conditions: in vivo
[4] = AUClast in C57BL/6J mouse at 5 mg/kg, iv by LC-MS/MS analysis; design: dose 5 mg/kg, route intravenous, time 0 - last; conditions: in vivo
[5] = AUC (0 to infinity) in C57BL/6J mouse at 5 mg/kg, iv by LC-MS/MS analysis; design: dose 5 mg/kg, time infinity, route intravenous; conditions: in vivo
[6] = Oral bioavailability in C57BL/6J mouse at 20 mg/kg via gavage by LC-MS/MS analysis; conditions: in vivo
[7] = Half life in C57BL/6J mouse at 20 mg/kg, po via gavage by LC-MS/MS analysis; conditions: in vivo
[8] = AUC (0 to infinity) in C57BL/6J mouse at 20 mg/kg, po via gavage by LC-MS/MS analysis; design: dose 20 mg/kg, route oral, time infinity; conditions: in vivo
[9] = Plasma concentration in C57BL/6J mouse at 50 mg/kg, po after 45 mins by LC-MS/MS analysis
[10] = Volume of distribution at steady state in C57BL/6J mouse at 5 mg/kg, iv by LC-MS/MS analysis; conditions: in vivo, read-out: Vdss
[11] = Half life in C57BL/6J mouse at 5 mg/kg, iv by LC-MS/MS analysis; conditions: in vivo
[12] = Plasma concentration in CD-1 mouse at 50 mg/kg, po after 1.25 hrs
[13] = Plasma concentration in fasted C57BL/6J mouse at 30 mg/kg, sc after 45 mins
[14] = MRT in C57BL/6J mouse at 5 mg/kg, iv by LC-MS/MS analysis; conditions: in vivo
[15] = Tmax in C57BL/6J mouse at 20 mg/kg, po via gavage by LC-MS/MS analysis; conditions: in vivo
[16] = Cmax in C57BL/6J mouse at 20 mg/kg, po via gavage by LC-MS/MS analysis; design: dose 20 mg/kg, route oral; conditions: in vivo
[17] = Plasma concentration in fasted C57BL/6J mouse at 50 mg/kg, po after 45 mins
[18] = Apparent volume of distribution in C57BL/6J mouse at 5 mg/kg, iv by LC-MS/MS analysis; conditions: in vivo, read-out: Vz

MRT [1]: 82.2 min | AUC(0-t) [2]: 98.4 ng·h/mL | clearance [3]: 214 mL/min/kg | AUC(0-t) [4]: 379 ng·h/mL | AUC(0-inf) [5]: 390 ng·h/mL | bioavailability [6]: 6.48% | half-life [7]: 164 min | AUC(0-inf) [8]: 148 ng·h/mL | concentration at 0.75 h [9]: 1180 nM | Vd [10]: 4.44 L/kg | half-life [11]: 26.7 min | concentration at 1.25 h [12]: 20 nM | concentration at 0.75 h [13]: 15800 nM | MRT [14]: 17 min | Tmax [15]: 30 min | Cmax [16]: 68.1 ng/mL | concentration at 0.75 h [17]: 1030 nM | Vd [18]: 8.24 L/kg
SMILES: COc1ccc(SCc2cnc(SCc3c(F)cc(-c4nn[nH]n4)cc3F)n2-c2ccc(F)cc2)cc1OC
